Results as given in patent US9089572B2, “Inhibitors of p97” (California Institute of Technology, priority 2008, dated 2015).

Tests used:
[1] = molecular target: T532C-Cdc48 (Saccharomyces cerevisiae, UniProt P25694, T532C); assay: In vitro ATP hydrolysis (malachite green ATPase assay), T532C-Cdc48; assay type: biochemical, yeast
Procedure: (§1) Compounds were tested for their ability to inhibit the ATPase activity of purified wild type murine p97 and T532C-Cdc48, a mutant of yeast Cdc48 in which the residue analogous to cysteine 522, threonine 532, was converted to cysteine.
(§2) To determine whether cysteine 522 is necessary for inhibition of p97 by compound 2, a mutant of p97 was constructed in which cysteine 522 was converted to either alanine (C522A-mp97) or threonine (C522T-mp97). The IC50 values of compound 2 were measured the against various enzymes during a 20-minute preincubation (see Table 2). Mutation of cysteine 522 in p97 to either alanine or threonine decreased sensitivity to compound 2 by greater than 100-fold. On the other hand, yeast Cdc48, which normally is quite resistant to compound 2, became nearly 30-fold more sensitive to the compound upon introduction of a cysteine in place of threonine 532.

[2] = system: DU145; assay: MTT cell growth assay, DU145; assay type: cell-based; conditions: Homo sapiens, DU-145, 48 or 72 h, read-out: Cell line inhibition of growth GI50 DU145
Procedure: (§3) To probe further the effect of compound 2 and related compounds 1, 3, 5, 6 and 7, various concentrations of these compounds were added to 13 different cell lines and incubated for 48 or 72 h. An MTT assay was then performed to evaluate cell growth and survival.

[3] = system: PC3; assay: MTT cell growth assay, PC3; assay type: cell-based; conditions: Homo sapiens, PC-3, 48 or 72 h, read-out: Cell line inhibition of growth GI50 PC3
Procedure: as §3

[4] = system: MDAMB-231; assay: MTT cell growth assay, MDAMB-231; assay type: cell-based; conditions: Homo sapiens, MDA-MB-231, 48 or 72 h, read-out: Cell line inhibition of growth GI50 MDAMB-231
Procedure: as §3

[5] = system: 13 different cell lines; assay: MTT cell growth assay, summary across 13 different cell lines; assay type: cell-based; conditions: read-out: 50% inhibition of growth (GI50) across the 13 different cell lines; range across 13 cell lines
Procedure: as §3
Data for the assay with MCF-7 cells and HeLa cells is shown in FIG. 21 and FIG. 22, respectively. […] Thus, compound 2 blocks p97-dependent processes in cells and also blocks the proliferation of cancer cell lines, illustrating its potential utility as an anti-proliferative drug to treat cancer.

[6] = molecular target: T1, C522T-mp97 (Mus musculus, UniProt Q01853, C522T); assay: In vitro ATP hydrolysis, C522T-mp97 mutant; assay type: biochemical, murine; conditions: 20-minute preincubation
T1 construct: made in house
Procedure: as §1, §2

[7] = system: Human 26S proteasome; assay: Hydrolysis of fluorogenic proteasome substrate LLVY-AMC by purified 26S proteasome; assay type: biochemical; conditions: 19 nM 26S proteasome, 30 min preincubation, 60 μM LLVY-AMC
Procedure: Purified human 26S proteasome (19 nM) was incubated with either DMSO, MG132 or compound 2 for 30 min at room temperature and fluorogenic proteasome substrate LLVY-AMC (60 μM) was added to initiate the reaction. Fluorescence intensity was monitored every 3 min over 30 min.

[8] = system: HEK293 cells that stably expressed TCR-GFP; assay: Accumulation of ERAD reporter TCR-alpha-GFP; assay type: cell-based; conditions: 2 h at 37° C., fluorescence microscopy
Procedure: Since p97 has a well-established role in ERAD, it was also determined whether compound 2 affects the accumulation of an ERAD-reporter, TCR-alpha-GFP. HEK293 cells that stably expressed TCR-GFP were treated with MG132 (see FIG. 19), compound 1 or compound 2 (FIG. 20) at the indicated concentrations for 2 h at 37° C. prior to being imaged by fluorescence microscopy to determine TCR-GFP accumulation. […] It was thus concluded that compound 2 inhibits p97 in cells, resulting in the accumulation of both soluble and insoluble high molecular weight ubiquitin conjugates and UPS substrates whose degradation depends upon p97.
HEK293 cells that stably expressed TCR-GFP were treated with the Velcade (FIG. 30) or compound 8 (FIG. 31) at the indicated concentrations for 2 h at 37° C. prior to being imaged by fluorescence microscopy to quantify TCR-GFP accumulation.

[9] = system: 293; assay: MTT cell growth assay, 293; assay type: cell-based; conditions: Homo sapiens, HEK293, 48 or 72 h, read-out: Cell line inhibition of growth GI50 293
Procedure: as §3

[10] = system: HeLa; assay: MTT cell growth assay, HeLa; assay type: cell-based; conditions: Homo sapiens, 48 or 72 h, read-out: Cell line inhibition of growth GI50 HeLa
Procedure: as §3

[11] = molecular target: T2, C522A-mp97 (Mus musculus, UniProt Q01853, C522A); assay: In vitro ATP hydrolysis, C522A-mp97 mutant; assay type: biochemical, murine
T2 construct: made in house
Procedure: as §1, §2

[12] = system: Ub-G76V-GFP/HeLa cells; assay: Degradation of pre-accumulated Ub-G76V-GFP (cycloheximide chase after MG132 washout); assay type: cell-based; conditions: for % K: relative to 0 μM
Procedure: To evaluate this possibility, an assay was developed to determine the rate of degradation of pre-accumulated Ub-G76V-GFP molecules. […] Cells were then washed with PBS three times remove the MG132. Cells were then refreshed by adding DMEM containing cycloheximide (50 μg/mL; to block production of more Ub-G76V-GFP) and test compounds (0˜10 μM) were added into cells. Eight 96-well plates were prepared and one of the plates was imaged at 25, 50, 70, 100, 110, 125, 145, or 170 min after washing with PBS three times. After washing out MG132, degradation of pre-accumulated Ub-G76V-GFP appears to follow pseudo-first order reaction. Rate constant (K; 1/min) can be determined from the slope of plotting Ln (Fold Accumulation) versus Time (min) (see FIG. 17 and FIG. 18).
Ub-G76V-GFP/HeLa cells were treated with MG132 (2 μM) for 1 h and washed with PBS three times. DMEM containing cycloheximide (50 μg/mL) and compound 8 (0-10 μM) was added into cells. Eight 96-well plates were prepared and one of the plates was imaged at 25, 50, 70, 100, 110, 125, 145, or 170 min after washing with PBS three times.

[13] = system: Molt4; assay: MTT cell growth assay, Molt4; assay type: cell-based; conditions: Homo sapiens, MOLT-4, 48 or 72 h, read-out: Cell line inhibition of growth GI50 Molt4
Procedure: as §3

T532C-Cdc48, sequence (P25694 whole entry T532C): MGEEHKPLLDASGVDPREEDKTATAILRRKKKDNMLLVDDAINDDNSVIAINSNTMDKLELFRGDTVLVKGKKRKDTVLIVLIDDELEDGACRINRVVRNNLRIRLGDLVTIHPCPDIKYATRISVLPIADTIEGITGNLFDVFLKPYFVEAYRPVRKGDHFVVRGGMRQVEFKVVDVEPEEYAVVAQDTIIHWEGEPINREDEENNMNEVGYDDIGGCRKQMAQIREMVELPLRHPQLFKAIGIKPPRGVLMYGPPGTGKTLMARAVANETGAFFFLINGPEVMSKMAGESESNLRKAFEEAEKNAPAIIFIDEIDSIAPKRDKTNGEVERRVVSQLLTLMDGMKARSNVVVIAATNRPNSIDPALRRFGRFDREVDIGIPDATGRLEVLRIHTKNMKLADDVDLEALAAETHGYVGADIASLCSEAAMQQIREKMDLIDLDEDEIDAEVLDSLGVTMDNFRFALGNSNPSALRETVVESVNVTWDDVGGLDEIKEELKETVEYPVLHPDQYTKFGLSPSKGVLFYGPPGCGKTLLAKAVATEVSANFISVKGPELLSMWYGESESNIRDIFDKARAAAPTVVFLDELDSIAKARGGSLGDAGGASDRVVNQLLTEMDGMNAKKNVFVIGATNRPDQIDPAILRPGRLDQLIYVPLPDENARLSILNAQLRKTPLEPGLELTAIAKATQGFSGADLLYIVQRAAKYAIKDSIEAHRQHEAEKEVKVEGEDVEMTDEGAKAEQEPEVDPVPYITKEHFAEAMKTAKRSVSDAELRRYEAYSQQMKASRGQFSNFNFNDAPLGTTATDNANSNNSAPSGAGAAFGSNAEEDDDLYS
T2 sequence (Q01853 whole entry C522A): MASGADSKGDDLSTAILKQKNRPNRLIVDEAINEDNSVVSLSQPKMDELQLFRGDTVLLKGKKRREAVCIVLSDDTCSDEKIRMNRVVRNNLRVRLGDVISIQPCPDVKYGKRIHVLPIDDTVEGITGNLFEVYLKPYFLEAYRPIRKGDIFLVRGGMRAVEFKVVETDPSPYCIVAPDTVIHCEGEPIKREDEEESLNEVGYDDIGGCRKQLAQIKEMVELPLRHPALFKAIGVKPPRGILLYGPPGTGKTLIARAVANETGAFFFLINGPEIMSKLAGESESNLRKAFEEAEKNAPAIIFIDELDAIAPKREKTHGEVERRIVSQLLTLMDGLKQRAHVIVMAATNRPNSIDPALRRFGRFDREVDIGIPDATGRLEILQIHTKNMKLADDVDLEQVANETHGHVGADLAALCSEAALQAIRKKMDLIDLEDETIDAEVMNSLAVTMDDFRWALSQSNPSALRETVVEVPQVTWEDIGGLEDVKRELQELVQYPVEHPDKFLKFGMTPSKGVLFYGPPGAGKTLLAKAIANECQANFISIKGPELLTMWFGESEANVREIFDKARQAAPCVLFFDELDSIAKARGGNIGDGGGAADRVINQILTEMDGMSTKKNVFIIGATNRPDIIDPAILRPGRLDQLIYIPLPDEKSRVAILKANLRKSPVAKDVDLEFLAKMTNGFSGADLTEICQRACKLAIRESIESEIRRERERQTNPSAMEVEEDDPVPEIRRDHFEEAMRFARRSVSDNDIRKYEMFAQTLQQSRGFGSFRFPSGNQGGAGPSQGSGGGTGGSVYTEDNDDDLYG
T1 sequence (Q01853 whole entry C522T): as the sequence (Q01853 whole entry C522A) above, with A522T counted along it

`C=CC(=O)Nc1ncnc2c1c(-c1ccccc1)nn2C(C)(C)C` [Compound 2] was tested, and the IC50 [1] was 14000 ± 5000 nM, the “increase in sensitivity of yeast Cdc48 on introduction of cysteine in place of threonine 532” value ([1]; T532C-Cdc48 vs yeast Cdc48) was about 30 fold and the GI50 [2] was 3600 ± 1500 nM. For the same molecule, the GI50 [3] was 2200 ± 1100 nM, the GI50 [4] was 1700 ± 300 nM and the GI50 [5] was 400 to 5100 nM. For the same molecule, the IC50 [6] was 82000 ± 45000 nM, the “inhibition of hydrolysis of proteasome substrate LLVY-AMC” value [7] was “does not inhibit hydrolysis” and the “accumulation of TCR-alpha-GFP” value [8] was “substantial TCR-alpha-GFP accumulation”. It also gave a GI50 [9] of 5100 ± 2300 nM, a GI50 [10] of 400 ± 300 nM and an IC50 ([11]; 20-minute preincubation) of 110000 ± 33000 nM. The “decrease in sensitivity on mutation of cysteine 522 in p97 to alanine or threonine” value ([11]; C522A or C522T vs wild type p97) was “greater than 100 fold”, the “K, rate constant of Ub-G76V-GFP degradation” value (“K, rate constant” for short) ([12]; 0.01 μM) was 0.0318 min⁻¹ and the “% K” value ([12]; 0.01 μM) was 83%. For the same molecule, the “K, rate constant” value ([12]; 0.04 μM) was 0.0306 min⁻¹, the “% K” value ([12]; 0.04 μM) was 80% and the “K, rate constant” value ([12]; 0.16 μM) was 0.0292 min⁻¹. For the same molecule, the “% K” value ([12]; 0.16 μM) was 76%, the “K, rate constant” value ([12]; 0.63 μM) was 0.0237 min⁻¹ and the “% K” value ([12]; 0.63 μM) was 62%. For the same molecule, the “K, rate constant” value ([12]; 2.5 μM) was 0.0189 min⁻¹, the “% K” value ([12]; 2.5 μM) was 49% and the “K, rate constant” value ([12]; 10 μM) was 0.0015 min⁻¹. For the same molecule, the “% K” value ([12]; 10 μM) was 4%, the IC50 ([12]; Homo sapiens, HeLa, 1 h, read-out: IC50 on the decay of Ub-G76V-GFP) was 1250 ± 470 nM and the GI50 [13] was 1100 ± 500 nM.
